In PMC9995496, “A screen for MeCP2-TBL1 interaction inhibitors using a luminescence-based assay” (Scientific Reports, 2023):
pIC50: −log10 of the molar value.

These compounds were tested against T1, MeCP2-TBL1 interaction (MeCP2-SmBiT / TBL1-LgBiT) (Mus musculus, UniProt Q9QXE7) (assay: MeCP2-TBL1 NanoLuc luciferase complementation assay (cell-free, extracts of transfected HEK293 cells)). Details: 20 µM, n = 7, t-test.
T1 construct: expressed in transfected cells; crude lysate used as a cell-free assay
T1 sequence (Q9QXE7 166-527): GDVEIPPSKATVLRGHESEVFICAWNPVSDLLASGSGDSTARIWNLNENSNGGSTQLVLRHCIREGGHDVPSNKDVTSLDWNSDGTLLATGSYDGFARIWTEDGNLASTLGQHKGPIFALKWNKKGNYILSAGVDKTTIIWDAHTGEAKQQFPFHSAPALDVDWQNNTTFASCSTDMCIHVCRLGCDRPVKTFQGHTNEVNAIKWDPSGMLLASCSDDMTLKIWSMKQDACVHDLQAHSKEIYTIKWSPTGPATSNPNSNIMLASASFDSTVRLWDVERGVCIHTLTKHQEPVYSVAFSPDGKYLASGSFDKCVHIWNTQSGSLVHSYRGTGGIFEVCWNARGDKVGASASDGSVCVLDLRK
Format: binding, human
Source text: To facilitate the discovery of inhibitors of the interaction between MeCP2 and TBL1/TBLR1, we set out to devise a simple and scalable biochemical assay for measuring the interaction between these two proteins. We initially explored the possibility of screening compound libraries using a previously established fluorescence polarization assay that depends on purified recombinant TBL1/TBLR1[26]. […] The resulting luminescence signal depends on the affinity between the two interacting proteins of interest (Fig. 1A). This method was originally developed to allow for the interrogation of protein–protein interactions in vivo. However, in order to facilitate large scale screening of chemical libraries, we adapted the assay for use as a cell-free system.
We fused the large N-terminal fragment of NanoLuc (LgBiT) to the C-terminus of the WD repeat domains of both TBL1 and TBLR1, and the small C-terminal fragment of NanoLuc (SmBiT) to the C-terminus of the C-terminal half of MeCP2 (Fig. 1B and C). This region of MeCP2 contains the NID (NCoR interaction domain)—the motif in MeCP2 that binds to TBL1/TBLR1.
The AgeI-NotI restriction fragment (encoding EGFP) was then replaced with a codon optimized SmBiT sequence to yield the MeCP2-SmBiT expression plasmid. The TBL1-LgBiT expression vector was derived from a TBL1-mCherry plasmid[25] by replacing the AgeI-NotI restriction fragment (encoding mCherry) with a codon optimized LgBiT sequence. SmBiT-PRKACA and LgBiT-PRKAR2A plasmids are commercially available (Promega, N203 and N204).
Cells were harvested after 24 h and cell pellets were stored at − 80 °C.
In the screens described here, the lysate obtained from a single 15 cm plate was used for 2.5 384-well assay plates. NanoLuc substrate (furimazine) (Promega, N1110) was diluted 1000-fold in passive lysis buffer (Promega, E1941) and added 1:1 to the lysate. Screening libraries were purchased from Asinex[40] and ApexBio (FDA-approved Drug Library, L1021). Compounds were dispensed using an Echo acoustic dispenser and tested at a final concentration of 20 µM in a total assay volume of 20 μl in 384-well plate format. DMSO was added to each well at a final concentration of 0.2% (v/v) and wells containing only DMSO were used as negative control. After 30 min incubation at room temperature, luminescence was measured on a Tecan M1000 multi-mode plate reader. Raw luminescence reads from each well on each plate were normalized to the median luminescence signal for that plate. In the ApexBio screen, the scaled and normalized PKA signal for each compound was subtracted from the MeCP2-TBL1 signal for the same compound. After plate normalization the robust SSMD (SSMD*) was calculated as described elsewhere. A threshold of SSMD* ≥ 3 was applied for discerning primary hits.
Assays were performed as described above except instead of a single concentration, a threefold serial dilution ranging from 60 to 0.03 μM was tested in triplicate for each of the compounds. Half-maximal inhibitory concentrations were calculated using global nonlinear regression by fitting the response data sets of all compounds simultaneously with a four-parameter logistic curve of log inhibitor concentration versus normalized luminescence using GraphPad Prism. During fitting, the maximum and minimum curve values were shared between the data sets.
With `CCNC(=O)c1noc(-c2cc(C(C)C)c(O)cc2O)c1-c1ccc(CN2CCOCC2)cc1` [luminespib, reference compound] the “inhibition in MeCP2-TBL1 assay compared with control PKA-based assay, individual validation” value was “statistically significantly greater”.

Same assay, conditions: 0.3–60 μM
In the case of `CCNC(=O)c1noc(-c2cc(C(C)C)c(O)cc2O)c1-c1ccc(CN2CCOCC2)cc1` [luminespib, reference compound], the “extent of MeCP2-TBL1 inhibition reached within the tested concentration range” value was “without being able to completely inhibit MeCP2-TBL1 binding”.

Same assay, conditions: 0.3–60 μM, PKA-based assay run in parallel
With `CCNC(=O)c1noc(-c2cc(C(C)C)c(O)cc2O)c1-c1ccc(CN2CCOCC2)cc1` [luminespib, reference compound] the “separation between MeCP2-TBL1 inhibition and inhibition of the PKA control in dose response” value was “clear separation”.

Same assay, conditions: ApexBio library screen, 20 µM, threshold SSMD* ≥ 3; read-out: inhibition in MeCP2-TBL1 assay after adjusting for activity in the PRKACA-PRKAR2A assay
`CCNC(=O)c1noc(-c2cc(C(C)C)c(O)cc2O)c1-c1ccc(CN2CCOCC2)cc1` [luminespib, reference compound] was tested, and the inhibition at 20 µM was ≥ 35%.

Same assay, conditions: dose response 0.3–60 μM, triplicate, 30 min, luminescence normalized to DMSO; read-out: IC50, inhibition of MeCP2-TBL1 luminescence signal
Compound `CCNC(=O)c1noc(-c2cc(C(C)C)c(O)cc2O)c1-c1ccc(CN2CCOCC2)cc1` [luminespib, reference compound] has a pIC50 of 4.51.

Same assay, conditions: primary screen of Asinex library, single well per compound
Work on `CC(=O)NCCCCCC(=O)N1CC[C@H]2O[C@H]3c4cc(C(C)(C)C)ccc4OC(C)(C)[C@@H]3C[C@@H]21` [BDG_34131400] yielded an Inhibition percent of 3.20. Compound `Cc1cc(NC(=O)CN2[C@H]3CCCCCN[C@@]3(C)C[C@H]2c2ccccc2)nn1C` [BDH_33624483] has an Inhibition percent of -0.55. Work on `CC1(C)Oc2c(O)cccc2[C@@H]2O[C@@H]3CCN(C(=O)c4cccc(Cn5ccnc5)c4)[C@@H]3C[C@H]21` [BDG_34133887] yielded an Inhibition percent of 0.92. With `CCOc1cccc2c1OC(C)(C)[C@H]1CC3(CCN(Cc4cnc(NC)nc4)CC3)CO[C@H]21` [BDG_33691710] the Inhibition percent was -4.17. In the case of `CN1CCN(c2cc(C(=O)N3CCCCC3CCNC(=O)c3ccccc3)ccn2)CC1` (stereo not drawn) [BDH_32345153], the Inhibition percent was -1.36. With `O=C(c1cccc(Nc2ncccn2)c1)N1CCC2(CC1)COC(Cc1cccc(F)c1)C2` (stereo not drawn) [BDH_32363979] the Inhibition percent was 9.41. For `C[C@]12C[C@@H](c3cccc(C(F)(F)F)c3)N(C(=O)CCc3nc4ccccc4[nH]3)[C@H]1CCCCC(=O)N2` [BDH_33631539], the Inhibition percent was -2.28. `Cc1cc(C)n(CCCC(=O)N2CCCC[C@]3(C)NC(=O)CC[C@H]23)n1` [BDG_33850399] gave an Inhibition percent of 0.88. Compound `CC1(C)Oc2c(O)cccc2[C@@H]2O[C@@H]3CCN(C(=O)CCCc4cn[nH]c4)C[C@@H]3C[C@H]21` [BDG_34130377] has an Inhibition percent of 1.08.

Same assay, conditions: primary screen of the Asinex library, sheet "Sargen output Asinex library", one well per compound
Compound `Cc1cc(Oc2ccc(C(N)=O)cc2)nc(C2CCCCN2C(=O)CCCN2CCCCCC2)n1` (stereo not drawn) [BDE_33629625] has an Inhibition percent of -1.16%. `Cc1cccc(Oc2cncc(C3CCCN(C(=O)c4cccc(-n5cnnc5)c4)C3)n2)c1` (stereo not drawn) [BDH_32340252] showed an Inhibition percent of -3.70%. `CCc1ccc(NC(=O)CN2[C@H]3CCCCC(=O)N[C@@]3(C)C[C@H]2c2cccc(OC)c2)cc1` [BDH_33625442] showed an Inhibition percent of 10.53%. `CN(Cc1ccc2ncccc2c1)C(=O)Cn1cc(C(=O)NCc2ccccc2)ccc1=O` [BDB_26410269] gave an Inhibition percent of -0.72%. `CC(C)(NC(=O)c1cccc(F)c1)C(=O)N1CCC(c2cccc(Cc3ccccc3)n2)CC1` [BDH_32354126] was tested, and the Inhibition percent was -0.56%. For `O=C(c1cccc(Cn2ccnc2)c1)N1CCCC(c2nccnc2Oc2ccccc2)C1` (stereo not drawn) [BDH_32339912], the Inhibition percent was -0.06%. With `COc1ccc(F)cc1-c1cccc(CC2(C(=O)NCCN3CCCCC3C)CCOCC2)c1` (stereo not drawn) [BDD_24116196] the Inhibition percent was 5.71%. Compound `Cc1nonc1COc1ccccc1C(=O)N1CCCC(Cc2cccc3cccnc23)CC1` (stereo not drawn) [BDH_32354219] has an Inhibition percent of 4.81%. `COc1cccc(Cc2cnc(C3CCCCN3C(=O)Cc3ccccc3OC)o2)c1` (stereo not drawn) [BDE_33514656] was tested, and the Inhibition percent was 2.98%. `Cc1nonc1COc1ccccc1C(=O)N1CCCC(Cc2ccnc3ccccc23)CC1` (stereo not drawn) [BDH_32354216] showed an Inhibition percent of -0.73%. Work on `COc1ccc(C2CCCN2C(=O)Cn2cc(NC(=O)Cc3ccccc3F)cn2)cc1` (stereo not drawn) [BDC_25693383] yielded an Inhibition percent of -0.19%. With `O=C1CCCN1CCOc1cccc(C(=O)N2CCCC(Cc3cccc4cnccc34)CC2)c1` (stereo not drawn) [BDH_32360253] the Inhibition percent was 1.74%. `Cc1cc(Oc2ccccc2F)nc(C2CCN(C(=O)c3cncc(-c4cncnc4)c3)CC2)n1` [BDH_32370406] was tested, and the Inhibition percent was 0.98%. `Cc1cc(Oc2ccccc2)nc(C2CCN(C(=O)c3ccnc(N4CCN(C)CC4)c3)CC2)n1` [BDH_32358107] was tested, and the Inhibition percent was -1.62%. Compound `CN(CCC(=O)N1CCCC1c1cncc(Cc2cccc(Cl)c2)n1)Cc1cccnc1` (stereo not drawn) [BDE_27213557] has an Inhibition percent of -2.00%. `Cc1ccccc1OCCC(=O)N1CCC(c2nc(N(C)C)ncc2-c2cccc(F)c2)C1` (stereo not drawn) [BDF_24539058] was tested, and the Inhibition percent was 9.04%. In the case of `CNC(=O)c1cnc(C)nc1C1CCCCN1CCS(=O)(=O)c1ccccc1` (stereo not drawn) [BDC_23573041], the Inhibition percent was -1.44%.

Same assay, conditions: primary screen of the Asinex library, sheet "Sargen output Asinex library", one well per compound, Batch Ref. 1
With `O=C(CCc1[nH]nc2c1CCCC2)N1CCOC(c2cccc(Cc3ccc(F)cc3)n2)C1` (stereo not drawn) [BDF_25251125] the Inhibition percent was -1.98%. For `COc1ccccc1Cc1cc(C(=O)N2CCC(c3nccnc3-c3nc(C)c[nH]3)CC2)ccn1` [BDH_33522161], the Inhibition percent was 6.35%. With `CC1(C)Oc2ccccc2[C@@H]2O[C@@H]3CCN(C(=O)c4cccc(Cn5ccnc5)c4)C[C@]3(CO)C[C@H]21` [BDH_34133896] the Inhibition percent was 6.91%. In the case of `CC(=O)N[C@H]1C[C@@H](C(=O)N(C)C)N(CC(=O)Nc2cccc3c2CCCC3)[C@H]1c1ccccc1` [BDH_33619991], the Inhibition percent was -0.19%. Work on `CN(Cc1cc(N(C)C)nc(C2CCCCN2)n1)C(=O)c1ccccc1-c1ccccc1` (stereo not drawn) [BDE_23459438] yielded an Inhibition percent of -3.75%. In the case of `O=C1CCC[C@H]2[C@@H](C[C@@H](c3cccc(C(F)(F)F)c3)N2C(=O)CCc2ccccc2)N1` [BDG_27570843], the Inhibition percent was 0.77%. For `COC(=O)c1ccc(NC(=O)c2cccc(Br)c2OCC(=O)O)cc1` [BDG_51125744], the Inhibition percent was 7.09%. Compound `CC(C)=CCC[C@@]1(C)Oc2cc(OCCO)ccc2[C@H]2O[C@H]3CCN(C(=O)OC(C)(C)C)C[C@@H]3C[C@@H]21` [BDG_33958723] has an Inhibition percent of 5.54%. Compound `CC(=O)N1CCC(Cc2cc(-c3ccccc3)no2)(C(=O)N2CCC(C(C)(C)C)CC2)C1` (stereo not drawn) [BDF_23076577] has an Inhibition percent of 2.56%. `COc1cccc(CC(=O)N2CCC(c3nc(N(C)C)ncc3-c3ccccc3F)CC2)c1` [BDE_26728718] gave an Inhibition percent of 20.50%. With `Cc1ccccc1OCCN1C(=O)CCc2c(C)nc(CN(C)C(=O)C3CCCC3)nc21` [BDE_24687458] the Inhibition percent was -1.66%. `CNC(=O)c1sc2nc(C3CCCCN3C(=O)CCCNc3ncccn3)ccc2c1N` (stereo not drawn) [BDH_33629130] gave an Inhibition percent of -2.07%. Work on `O=C1CCC[C@]2(CN(Cc3cccc(-c4ccccc4F)c3)C[C@H]2c2ccccc2F)N1` [BDD_23570797] yielded an Inhibition percent of 11.53%. Compound `Cn1c(CCC(=O)N2CC[C@@H]3[C@H]2CCCC(=O)N3Cc2ccc(F)cc2)nc2ccccc21` [BDG_23960040] has an Inhibition percent of 1.86%. In the case of `Cc1cc(Nc2cccc(C3CCCN(C(=O)C4CCCCN4C(=O)OC(C)(C)C)C3)n2)[nH]n1` (stereo not drawn) [BDD_30366487], the Inhibition percent was 3.82%. `COc1cccc([C@@H]2C[C@]3(C)NC(=O)CCCC[C@@H]3N2CC(=O)Nc2cc(C)n(C)n2)c1` [BDH_33624491] gave an Inhibition percent of -2.56%. Compound `O=C1CC(C(=O)N2CCNC(=O)C2Cc2cccc(-c3ccccc3)c2)c2ccccc2N1` (stereo not drawn) [BDD_21879577] has an Inhibition percent of 4.73%. In the case of `COc1ccccc1Cc1cc(C(=O)N2CCCC2c2cncc(-c3nc(C)c[nH]3)n2)ccn1` (stereo not drawn) [BDH_33522145], the Inhibition percent was 0.17%. `Cc1nc(C(=O)N2CCCC3(C/C=C/COc4ccccc4C(=O)NCCNC3=O)C2)co1` (stereo not drawn) [BDH_33731677] was tested, and the Inhibition percent was -0.08%. With `CN(C)c1ncc(-c2cccc(F)c2)c(C2CCCCN2C(=O)COc2ccccc2)n1` (stereo not drawn) [BDE_26725534] the Inhibition percent was 34.22%.
